Test results published in patent publication US20210009542A1 (Calico Life Sciences LLC, priority 2018, published 2021).
Where two headings read alike, the source gives them in different places.

What was measured:
[1] = target: T1, His tagged PTPN2 (TC45) protein (Homo sapiens, UniProt P17706); experiment: Mobility shift assay (MSA) for potency of PTPN2 inhibitors; assay type: biochemical
T1 construct: made in house
T1 sequence (P17706 with tags, fused parts or gaps isoform P17706-2): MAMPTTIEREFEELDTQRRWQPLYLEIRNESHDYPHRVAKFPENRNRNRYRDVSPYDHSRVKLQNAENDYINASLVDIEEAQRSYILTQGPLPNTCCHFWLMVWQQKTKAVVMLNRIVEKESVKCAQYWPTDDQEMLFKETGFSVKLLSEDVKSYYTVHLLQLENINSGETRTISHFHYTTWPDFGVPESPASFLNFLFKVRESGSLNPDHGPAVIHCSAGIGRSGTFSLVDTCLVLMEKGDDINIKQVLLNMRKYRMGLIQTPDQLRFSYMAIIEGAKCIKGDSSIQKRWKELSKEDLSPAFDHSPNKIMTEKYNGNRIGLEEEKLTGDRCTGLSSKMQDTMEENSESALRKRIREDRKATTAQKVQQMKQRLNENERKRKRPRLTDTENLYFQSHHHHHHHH
In short: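 His-tagged PTPN2 TC45 (0.5 nM) was preincubated with compound (12-point, 1:3) for 10 min at room temperature in 50 mM HEPES pH 7.5, 1 mM EGTA, 10 mM EDTA, 0.01% Tween 20, 2 mM DTT. OG488-labelled phospho-insulin-receptor peptide ([…]) was then added for 10 min. After quenching, dephosphorylation was measured by microfluidic mobility shift and IC50 derived from % inhibition.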

[2] = target: T2, His tagged full-length PTP1B protein (Homo sapiens, UniProt P18031); experiment: Mobility shift assay (MSA) for potency of PTP1B inhibitors; assay type: biochemical
T2 construct: made in house
T2 sequence (P18031 with tags, fused parts or gaps): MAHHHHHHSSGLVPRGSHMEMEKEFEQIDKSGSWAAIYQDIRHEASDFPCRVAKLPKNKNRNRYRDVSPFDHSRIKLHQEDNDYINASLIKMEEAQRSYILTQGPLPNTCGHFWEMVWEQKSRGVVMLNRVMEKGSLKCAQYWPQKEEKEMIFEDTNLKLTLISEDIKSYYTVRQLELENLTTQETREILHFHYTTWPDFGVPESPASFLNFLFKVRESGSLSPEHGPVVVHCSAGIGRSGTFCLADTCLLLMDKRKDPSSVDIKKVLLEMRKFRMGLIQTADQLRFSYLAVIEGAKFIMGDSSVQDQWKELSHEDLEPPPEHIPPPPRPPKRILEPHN
Protocol: The enzymatic assay used to determine activity is a mobility shift assay using a LabChip EZ Reader by Caliper Life Sciences. The enzymatic reaction was carried out in assay buffer (50 mM HEPES pH 7.5, 1 mM EGTA, 10 mM EDTA, 0.01% Tween® 20, and 2 mM DTT). […] The enzyme (at 0.5 nM) was incubated with compound for 10 minutes at room temperature. […] The % inhibition was then used to calculate the IC50 values.

[3] = system: B16F10 mouse melanoma cells; experiment: B16F10 IFNγ-induced cellular growth inhibition assay; assay type: cell-based; details: Mus musculus, B16-F10
In short: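 B16F10 cells (500/well, DMEM + 10% FBS) dosed in triplicate at 100 μM to 0.001 μM (0.1% DMSO) with or without 0.5 ng/mL final mouse IFNγ. Confluence imaged every 6 h for 5 days; % growth inhibition calculated versus DMSO/with-IFNγ control once DMSO/no-IFNγ wells exceeded 95% confluence.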

[4] = +0.5 ng/mL IFNγ, 33 μM compound, relative to DMSO control, read-out: % B16F10 growth inhibition (+0.5 ng/mL IFNγ) @ 33 μM
[5] = no IFNγ, 33 μM compound, read-out: % B16F10 growth inhibition (no IFNγ) @ 33 μM

SMILES | IC50 ([1]; read-out: PTPN2 MSA IC50) | IC50 [2] | other results
O=C1CN(c2c(O)cc3ccc([C@@H]4CCNC4)cc3c2F)S(=O)(=O)N1 (single isomer, unassigned) [Compound 232] | 1 to 10 nM | 10 to 100 nM | 
O=C1CN(c2c(O)cc3ccc([C@H]4CCNC4)cc3c2F)S(=O)(=O)N1 (single isomer, unassigned) [Compound 233] | 1 to 10 nM | 10 to 100 nM | 
CC(O)COc1ccc2cc(O)c(N3CC(=O)NS3(=O)=O)c(F)c2c1 (centres unmarked) [Compound 135, 5-[1-fluoro-3-hydroxy-7-(2-hydroxypropoxy)naphthalen-2-yl]-1λ^6,2,5-thiadiazolidine-1,1,3-trione] | 1 to 10 nM | 10 to 100 nM | 
CC(COc1ccc2cc(O)c(N3CC(=O)NS3(=O)=O)c(F)c2c1)C1CC1 (centres unmarked) [Compound 171, 5-[7-(2-cyclopropylpropoxy)-1-fluoro-3-hydroxynaphthalen-2-yl]-1λ^6,2,5-thiadiazolidine-1,1,3-trione] | < 1 nM | 10 to 100 nM | 
CS(=O)(=O)N1CCC(COc2ccc3cc(O)c(N4CC(=O)NS4(=O)=O)c(F)c3c2)C1 (centres unmarked) [Compound 173, 5-(1-fluoro-3-hydroxy-7-{[1-(methanesulfonyl)pyrrolidin-3-yl]methoxy}naphthalen-2-yl)-1,2,5-thiadiazolidine-1,1,3-trione] | < 1 nM | 10 to 100 nM | 
O=C1CN(c2c(O)cc3ccc(C4CCCN(S(=O)(=O)C5CC5)C4)cc3c2F)S(=O)(=O)N1 (centres unmarked) [Compound 186, 5-{7-[1-(cyclopropanesulfonyl)piperidin-3-yl]-1-fluoro-3-hydroxynaphthalen-2-yl}-1λ^6,2,5-thiadiazolidine-1,1,3-trione] | 1 to 10 nM | 10 to 100 nM | 
O=C1CN(c2c(O)cc3ccc(C4CCCN4C(=O)C4CC4)cc3c2F)S(=O)(=O)N1 (centres unmarked) [Compound 187, 5-{7-[1-(cyclopropanecarbonyl)pyrrolidin-2-yl]-1-fluoro-3-hydroxynaphthalen-2-yl}-1λ^6,2,5-thiadiazolidine-1,1,3-trione] | 1 to 10 nM | 10 to 100 nM | 
O=C1CN(c2c(O)cc3ccc(C4CCCN4S(=O)(=O)C4CC4)cc3c2F)S(=O)(=O)N1 (centres unmarked) [Compound 189, 5-{7-[1-(cyclopropanesulfonyl)pyrrolidin-2-yl]-1-fluoro-3-hydroxynaphthalen-2-yl}-1λ^6,2,5-thiadiazolidine-1,1,3-trione] | 1 to 10 nM | 10 to 100 nM | 
CC(C)(C)CC1CCN(c2ccc3cc(O)c(N4CC(=O)NS4(=O)=O)c(F)c3c2)C1 (centres unmarked) [Compound 220, 5-{7-[3-(2,2-dimethylpropyl)pyrrolidin-1-yl]-1-fluoro-3-hydroxynaphthalen-2-yl}-1λ^6,2,5-thiadiazolidine-1,1,3-trione] | 10 to 100 nM | > 100 nM | 
O=C1CN(c2c(O)cc3ccc(C(CO)CCl)cc3c2F)S(=O)(=O)N1 (centres unmarked) [Compound 221, 5-[7-(1-chloro-3-hydroxypropan-2-yl)-1-fluoro-3-hydroxynaphthalen-2-yl]-1λ^6,2,5-thiadiazolidine-1,1,3-trione] | 10 to 100 nM | > 100 nM | 
O=C1CN(c2c(O)cc3ccc(C4CCN(CC5CC5)C4)cc3c2F)S(=O)(=O)N1 (centres unmarked) [Compound 222, 5-{7-[1-(cyclopropylmethyl)pyrrolidin-3-yl]-1-fluoro-3-hydroxynaphthalen-2-yl}-1λ^6,2,5-thiadiazolidine-1,1,3-trione] | > 100 nM | 10 to 100 nM | 
O=C1CN(c2c(O)cc3ccc(C4CCCN4)cc3c2F)S(=O)(=O)N1 (centres unmarked) [Compound 258, 5-[1-fluoro-3-hydroxy-7-(pyrrolidin-2-yl)naphthalen-2-yl]-1λ^6,2,5-thiadiazolidine-1,1,3-trione] | 1 to 10 nM | 10 to 100 nM | 
O=C1CN(c2c(O)cc3ccc(CC4CCNC4)cc3c2F)S(=O)(=O)N1 (centres unmarked) [Compound 262, 5-{1-fluoro-3-hydroxy-7-[(pyrrolidin-3-yl)methyl]naphthalen-2-yl}-1λ^6,2,5-thiadiazolidine-1,1,3-trione] | 1 to 10 nM | 10 to 100 nM | 
O=C1CN(c2c(O)cc3ccc(OC(CO)CCl)cc3c2F)S(=O)(=O)N1 (centres unmarked) [Compound 272, 5-{7-[(1-chloro-3-hydroxypropan-2-yl)oxy]-1-fluoro-3-hydroxynaphthalen-2-yl}-1λ^6,2,5-thiadiazolidine-1,1,3-trione] | 1 to 10 nM | 10 to 100 nM | 
O=C1CN(c2c(O)cc3ccc(C4=CCN(S(=O)(=O)C5CCOC5)C4)cc3c2F)S(=O)(=O)N1 (centres unmarked) [Compound 285, 5-{1-fluoro-3-hydroxy-7-[1-(oxolane-3-sulfonyl)-2,5-dihydro-1H-pyrrol-3-yl]naphthalen-2-yl}-1λ^6,2,5-thiadiazolidine-1,1,3-trione] | < 1 nM | 1 to 10 nM | 
CCCS(=O)(=O)N1CC=C(c2ccc3cc(O)c(N4CC(=O)NS4(=O)=O)c(F)c3c2)C1 [Compound 288] | < 1 nM | < 1 nM | 
O=C1CN(c2c(O)cc3ccc(C4=CCN(S(=O)(=O)CC5CCCCO5)C4)cc3c2F)S(=O)(=O)N1 (centres unmarked) [Compound 289, 5-(1-fluoro-3-hydroxy-7-{1-[(oxan-2-yl)methanesulfonyl]-2,5-dihydro-1H-pyrrol-3-yl}naphthalen-2-yl)-1λ^6,2,5-thiadiazolidine-1,1,3-trione] | < 1 nM | < 1 nM | 
O=C1CN(c2c(O)cc3ccc(C4=CCN(S(=O)(=O)CC5COCCO5)C4)cc3c2F)S(=O)(=O)N1 (centres unmarked) [Compound 292, 5-(7-{1-[(1,4-dioxan-2-yl)methanesulfonyl]-2,5-dihydro-1H-pyrrol-3-yl}-1-fluoro-3-hydroxynaphthalen-2-yl)-1λ^6,2,5-thiadiazolidine-1,1,3-trione] | < 1 nM | < 1 nM | 
NCCOc1ccc2cc(O)c(N3CC(=O)NS3(=O)=O)c(F)c2c1 [Compound 309, 5-[7-(2-aminoethoxy)-1-fluoro-3-hydroxynaphthalen-2-yl]-1λ^6,2,5-thiadiazolidine-1,1,3-trione] | 1 to 10 nM |  | inhibition at 33 µM [3, 4]: 60 to 90%; inhibition at 33 µM [3, 5]: < 25%
Cc1nn(C)cc1S(=O)(=O)N1CC=C(c2ccc3cc(O)c(N4CC(=O)NS4(=O)=O)c(F)c3c2)C1 [Compound 310, 5-{7-[1-(1,3-dimethyl-1H-pyrazole-4-sulfonyl)-2,5-dihydro-1H-pyrrol-3-yl]-1-fluoro-3-hydroxynaphthalen-2-yl}-1λ^6,2,5-thiadiazolidine-1,1,3-trione] | < 1 nM |  | inhibition at 33 µM [3, 4]: > 90%; inhibition at 33 µM [3, 5]: < 25%
CCS(=O)(=O)NCCOc1ccc2cc(O)c(N3CC(=O)NS3(=O)=O)c(F)c2c1 [Compound 311, N-(2-{[8-fluoro-6-hydroxy-7-(1,1,4-trioxo-1λ^6,2,5-thiadiazolidin-2-yl)naphthalen-2-yl]oxy}ethyl)ethanesulfonamide] | < 1 nM |  | inhibition at 33 µM [3, 4]: 60 to 90%; inhibition at 33 µM [3, 5]: < 25%
CC(C)CCS(=O)(=O)N1CC=C(c2ccc3cc(O)c(N4CC(=O)NS4(=O)=O)c(F)c3c2)C1 [Compound 313, 5-{1-fluoro-3-hydroxy-7-[1-(3-methylbutane-1-sulfonyl)-2,5-dihydro-1H-pyrrol-3-yl]naphthalen-2-yl}-1λ^6,2,5-thiadiazolidine-1,1,3-trione] | < 1 nM |  | inhibition at 33 µM [3, 4]: 60 to 90%; inhibition at 33 µM [3, 5]: < 25%
COc1ccc2cc(O)c(N3CC(=O)NS3(=O)=O)cc2c1 [Compound X, reference compound] |  |  | IC50 ([1]; Table 4, read-out: PTPN2 MSA IC50): 10 to 100 nM; IC50 ([1]; read-out: PTPN2 IC50): 69 nM; inhibition at 33 µM ([3]; 33 μM, in the presence of IFNγ, read-out: growth inhibition in the presence of IFNγ compared to DMSO controls): < 25%; inhibition at 33 µM ([3]; Table 4, +0.5 ng/mL IFNγ, 33 μM, read-out: % B16F10 growth inhibition (+0.5 ng/mL IFNγ) @ 33 μM): < 25%; inhibition at 33 µM ([3]; Table 4, no IFNγ, 33 μM, read-out: % B16F10 growth inhibition (no IFNγ) @ 33 μM): < 25%
